Data: US20020035061A1, “COMPOSITIONS AND METHODS FOR TREATING INFECTIONS USING CATIONIC PEPTIDES ALONE OR IN COMBINATION WITH ANTIBIOTICS” (priority 1996, published 2002)
“And” between values parts separate entries of the source, which are not always exact repeats. Equal entries are not always repeated.

Experiments:
Format in all cases: cell-based
[1] = test system: E. coli strain ML-35 inner membrane
bacterial isolates = assay: microbe, parasite or virus in culture
[2] = test system: various bacterial strains; assay: Broth dilution assay (MIC)
Experimental: Typically 100 μl of calcium and magnesium supplemented Mueller Hinton broth is dispensed into each well of a 96-well microtitre plate and 100 μl volumes of two-fold serial dilutions of the peptide are prepared across the plate. One row of wells receives no peptide and is used as a growth control. Each well is inoculated with approximately 5×10^5 CFU of bacteria and the plate is incubated at 35-37° C. for 16-20 hours.
For example, MIC values in μg/ml are established by broth dilution assay (Table 13) or by agarose dilution assay (Table 14) for a series of cationic peptides against various bacterial strains.

[3] = P. aeruginosa 23, Piperacillin section
[4] = S. aureus 19 MRSA, Piperacillin section
[5] = peptide + Piperacillin, P. aeruginosa 23
[6] = peptide + Piperacillin, S. aureus 19 MRSA

ILKKWPWWPWRRK [MBI 11CN]
ONPG hydrolysis diminished compared to no pre-incubation ([1]; cells pre-incubated with valinomycin): approximately 50%
Peptide MIC + Tobramycin (bacterial isolates; A. baumannii ABI001): 16 µg/mL
Tobramycin MIC + Peptide (bacterial isolates; A. baumannii ABI001): 4 µg/mL
Peptide MIC Alone (bacterial isolates; A. baumannii ABI001, Tobramycin section): 64 µg/mL
Peptide MIC + Tobramycin (bacterial isolates; E. coli ECO006): 0.25 µg/mL
Tobramycin MIC + Peptide (bacterial isolates; E. coli ECO006): 4 µg/mL
Peptide MIC Alone (bacterial isolates; E. coli ECO006, Tobramycin section): 8 µg/mL
Peptide MIC + Piperacillin (bacterial isolates; P. aeruginosa 22): 32 µg/mL
Piperacillin MIC + Peptide (bacterial isolates; P. aeruginosa 22): 4 µg/mL
Peptide MIC Alone (bacterial isolates; P. aeruginosa 22, Piperacillin section): 64 µg/mL
Peptide MIC + Piperacillin (bacterial isolates; P. aeruginosa 23): 4 µg/mL
Piperacillin MIC + Peptide (bacterial isolates; P. aeruginosa 23): 64 µg/mL
Peptide MIC Alone (bacterial isolates; [3]): 128 µg/mL
Peptide MIC + Tobramycin (bacterial isolates; P. aeruginosa PA032): 4 µg/mL
Tobramycin MIC + Peptide (bacterial isolates; P. aeruginosa PA032): 8 µg/mL
Peptide MIC Alone (bacterial isolates; P. aeruginosa PA032, Tobramycin section): >128 µg/mL
Peptide MIC + Piperacillin (bacterial isolates; S. aureus 18 MRSA): 16 µg/mL
Piperacillin MIC + Peptide (bacterial isolates; S. aureus 18 MRSA): 0.5 µg/mL
Peptide MIC Alone (bacterial isolates; S. aureus 18 MRSA, Piperacillin section): 32 µg/mL
Peptide MIC + Piperacillin (bacterial isolates; S. aureus 19 MRSA): 1 µg/mL
Piperacillin MIC + Peptide (bacterial isolates; S. aureus 19 MRSA): 64 µg/mL
Peptide MIC Alone (bacterial isolates; [4]): 8 µg/mL
Peptide MIC + Tobramycin (bacterial isolates; S. maltophilia SMA029): 2 µg/mL
Tobramycin MIC + Peptide (bacterial isolates; S. maltophilia SMA029): 64 µg/mL
Peptide MIC Alone (bacterial isolates; S. maltophilia SMA029, Tobramycin section): >128 µg/mL
Peptide MIC + Tobramycin (bacterial isolates; S. maltophilia SMA035): 32 µg/mL
Tobramycin MIC + Peptide (bacterial isolates; S. maltophilia SMA035): 4 µg/mL
Peptide MIC Alone (bacterial isolates; S. maltophilia SMA035, Tobramycin section): 128 µg/mL
FIC (bacterial isolates; peptide + Piperacillin, P. aeruginosa 22): 0.52
FIC (bacterial isolates; [5]): 0.53
FIC (bacterial isolates; peptide + Piperacillin, S. aureus 18 MRSA): 0.50
FIC (bacterial isolates; [6]): 0.38
FIC (bacterial isolates; peptide + Tobramycin, A. baumannii ABI001): 0.50
FIC (bacterial isolates; peptide + Tobramycin, E. coli ECO006): 0.53
FIC (bacterial isolates; peptide + Tobramycin, P. aeruginosa PA032): 0.52
FIC (bacterial isolates; peptide + Tobramycin, S. maltophilia SMA029): 0.51
FIC (bacterial isolates; peptide + Tobramycin, S. maltophilia SMA035): 0.38
MIC ([2]; A. calcoaceticus 8191): 256 µg/mL
MIC ([2]; E. cloacae 13047): >128 µg/mL
MIC ([2]; E. coli 25922): 128 µg/mL
MIC ([2]; E. coli DH1): 64 µg/mL
MIC ([2]; E. coli ECO003): 64 µg/mL
MIC ([2]; E. coli KL4): 64 µg/mL
MIC ([2]; E. faecalis 29212): 64 µg/mL
MIC ([2]; K. pneumoniae 13883): >128 µg/mL
MIC ([2]; K. pneumoniae B44): 64 µg/mL
MIC ([2]; P. aeruginosa 27853): >128 µg/mL
MIC ([2]; P. aeruginosa 8509041): 256 µg/mL
MIC ([2]; P. aeruginosa 9308077): 128 µg/mL
MIC ([2]; P. aeruginosa 9503024): >256 µg/mL
MIC ([2]; P. aeruginosa H650): 256 µg/mL
MIC ([2]; P. aeruginosa H652): 256 µg/mL
MIC ([2]; S. aureus 25923): 32 µg/mL
MIC ([2]; S. aureus 27217): 64 µg/mL
MIC ([2]; S. aureus 29213): 32 µg/mL
MIC ([2]; S. aureus 33593): 64 µg/mL
MIC ([2]; S. aureus 8402093): 32 µg/mL
MIC ([2]; S. aureus 8809014): 32 µg/mL
MIC ([2]; S. aureus 8809025): 64 µg/mL
MIC ([2]; S. epidermidis 14990): 8 µg/mL
MIC ([2]; S. maltophilia 13637): 128 µg/mL
MIC ([2]; S. maltophilia H361): 64 µg/mL
MIC ([2]; S. marcescens 13880): >128 µg/mL
MIC ([2]; S. marcescens B21): >256 µg/mL

ILRWPWWPWRRK [MBI 11B7CN]
time of maximum activity in growth cycle [1]: 140 min and 230 min
Peptide MIC Alone (bacterial isolates; 2. Ceftriaxone, A. baumannii ABI002): 32 µg/mL
Peptide MIC Alone (bacterial isolates; 2. Ceftriaxone, A. baumannii ABI006): 32 µg/mL
Peptide MIC Alone (bacterial isolates; 2. Ceftriaxone, B. cepacia BC003): >128 µg/mL
Peptide MIC Alone (bacterial isolates; 2. Ceftriaxone, P. aeruginosa PA008): 128 µg/mL
Peptide MIC Alone (bacterial isolates; 2. Ceftriaxone, P. aeruginosa PA024): >128 µg/mL
Peptide MIC Alone (bacterial isolates; 2. Ceftriaxone, S. maltophilia SMA020): 16 µg/mL
Peptide MIC Alone (bacterial isolates; 2. Ceftriaxone, S. maltophilia SMA021): 32 µg/mL
Peptide MIC Alone (bacterial isolates; 2. Ceftriaxone, S. maltophilia SMA023): 128 µg/mL
Ceftriaxone MIC + Peptide (bacterial isolates; A. baumannii ABI002): 8 µg/mL
Peptide MIC + Ceftriaxone (bacterial isolates; A. baumannii ABI002): 8 µg/mL
Ceftriaxone MIC + Peptide (bacterial isolates; A. baumannii ABI006): 16 µg/mL
Ceftriaxone MIC + Peptide (bacterial isolates; B. cepacia BC003): 16 µg/mL
Peptide MIC + Piperacillin (bacterial isolates; E. cloacae 6): 16 µg/mL
Piperacillin MIC + Peptide (bacterial isolates; E. cloacae 6): 16 µg/mL
Peptide MIC Alone (bacterial isolates; E. cloacae 6, Piperacillin section): 32 µg/mL
Peptide MIC + Piperacillin (bacterial isolates; E. cloacae 9): 16 µg/mL
Piperacillin MIC + Peptide (bacterial isolates; E. cloacae 9): 1 µg/mL
Peptide MIC Alone (bacterial isolates; E. cloacae 9, Piperacillin section): 32 µg/mL
Peptide MIC + Piperacillin (bacterial isolates; E. cloacae 10): 16 µg/mL
Piperacillin MIC + Peptide (bacterial isolates; E. cloacae 10): 0.5 µg/mL
Peptide MIC Alone (bacterial isolates; E. cloacae 10, Piperacillin section): 32 µg/mL
Peptide MIC + Piperacillin (bacterial isolates; H. influenzae 1): 0.125 µg/mL
Piperacillin MIC + Peptide (bacterial isolates; H. influenzae 1): 32 µg/mL
Peptide MIC Alone (bacterial isolates; H. influenzae 1, Piperacillin section): >128 µg/mL
Peptide MIC + Piperacillin (bacterial isolates; H. influenzae SB1): 0.125 µg/mL
Piperacillin MIC + Peptide (bacterial isolates; H. influenzae SB1): 0.25 µg/mL
Peptide MIC Alone (bacterial isolates; H. influenzae SB1, Piperacillin section): >128 µg/mL
Peptide MIC + Piperacillin (bacterial isolates; P. aeruginosa 23): 64 µg/mL
Piperacillin MIC + Peptide (bacterial isolates; P. aeruginosa 23): 2 µg/mL
Peptide MIC Alone (bacterial isolates; [3]): 128 µg/mL
Ceftriaxone MIC + Peptide (bacterial isolates; P. aeruginosa PA008): 16 µg/mL
Peptide MIC + Ceftriaxone (bacterial isolates; P. aeruginosa PA008): 16 µg/mL
Ceftriaxone MIC + Peptide (bacterial isolates; P. aeruginosa PA024): 32 µg/mL
Peptide MIC + Ceftriaxone (bacterial isolates; P. aeruginosa PA024): 0.125 µg/mL
Peptide MIC + Piperacillin (bacterial isolates; S. aureus 19 MRSA): 1 µg/mL
Piperacillin MIC + Peptide (bacterial isolates; S. aureus 19 MRSA): 32 µg/mL
Peptide MIC Alone (bacterial isolates; [4]): 4 µg/mL
Peptide MIC + Piperacillin (bacterial isolates; S. maltophilia 5): 64 µg/mL
Piperacillin MIC + Peptide (bacterial isolates; S. maltophilia 5): 64 µg/mL
Peptide MIC Alone (bacterial isolates; S. maltophilia 5, Piperacillin section): >128 µg/mL
Peptide MIC + Piperacillin (bacterial isolates; S. maltophilia 9): 64 µg/mL
Piperacillin MIC + Peptide (bacterial isolates; S. maltophilia 9): 64 µg/mL
Peptide MIC Alone (bacterial isolates; S. maltophilia 9, Piperacillin section): >128 µg/mL
Peptide MIC + Piperacillin (bacterial isolates; S. maltophilia 11): 32 µg/mL
Piperacillin MIC + Peptide (bacterial isolates; S. maltophilia 11): 64 µg/mL
Peptide MIC Alone (bacterial isolates; S. maltophilia 11, Piperacillin section): >128 µg/mL
Ceftriaxone MIC + Peptide (bacterial isolates; S. maltophilia SMA020): 64 µg/mL
Peptide MIC + Ceftriaxone (bacterial isolates; S. maltophilia SMA020): 8 µg/mL
Ceftriaxone MIC + Peptide (bacterial isolates; S. maltophilia SMA021): 64 µg/mL
Peptide MIC + Ceftriaxone (bacterial isolates; S. maltophilia SMA021): 8 µg/mL
Ceftriaxone MIC + Peptide (bacterial isolates; S. maltophilia SMA023): 32 µg/mL
Peptide MIC + Ceftriaxone (bacterial isolates; S. maltophilia SMA023): 16 µg/mL
Peptide MIC + Piperacillin (bacterial isolates; S. marcescens 1): 4 µg/mL
Piperacillin MIC + Peptide (bacterial isolates; S. marcescens 1): 8 µg/mL
Peptide MIC Alone (bacterial isolates; S. marcescens 1, Piperacillin section): >128 µg/mL
FIC (bacterial isolates; peptide + Ceftriaxone, A. baumannii ABI002): 0.50
FIC (bacterial isolates; peptide + Ceftriaxone, A. baumannii ABI006): 0.25
FIC (bacterial isolates; peptide + Ceftriaxone, B. cepacia BC003): 0.52
FIC (bacterial isolates; peptide + Ceftriaxone, P. aeruginosa PA008): 0.25
FIC (bacterial isolates; peptide + Ceftriaxone, P. aeruginosa PA024): 0.50
FIC (bacterial isolates; peptide + Ceftriaxone, S. maltophilia SMA020): 0.75
FIC (bacterial isolates; peptide + Ceftriaxone, S. maltophilia SMA021): 0.50
FIC (bacterial isolates; peptide + Ceftriaxone, S. maltophilia SMA023): 0.38
FIC (bacterial isolates; peptide + Piperacillin, E. cloacae 6): 0.56
FIC (bacterial isolates; peptide + Piperacillin, E. cloacae 9): 0.50
FIC (bacterial isolates; peptide + Piperacillin, E. cloacae 10): 0.50
FIC (bacterial isolates; peptide + Piperacillin, H. influenzae 1): 0.50
FIC (bacterial isolates; peptide + Piperacillin, H. influenzae SB1): 0.50
FIC (bacterial isolates; [5]): 0.56
FIC (bacterial isolates; [6]): 0.50
FIC (bacterial isolates; peptide + Piperacillin, S. maltophilia 5): 0.50
FIC (bacterial isolates; peptide + Piperacillin, S. maltophilia 9): 0.50
FIC (bacterial isolates; peptide + Piperacillin, S. maltophilia 11): 0.38
FIC (bacterial isolates; peptide + Piperacillin, S. marcescens 1): 0.27
